Laboratory results taken from ChEMBL document CHEMBL3259800, “Design, synthesis and biological evaluation of novel 4-alkapolyenylpyrrolo[1,2-a]quinoxalines as antileishmanial agents--part III” (Eur J Med Chem, 2014).

Tested on: Leishmania major
Assay: Antimicrobial activity against Leishmania major MHOM/IL/81/BNI promastigotes after 96 hrs by resazurin-based assay
Assay type: functional, organism-based
Conditions: not given

Compound | IC50
CCCC/C=C/C=C/c1nc2ccccc2n2cccc12 | 3.7 µM
CCCC/C=C/C=C/c1nc2cc(OC)ccc2n2cccc12 | 2.5 µM
CCCC/C=C/C=C/c1nc2ccc(OC)cc2n2cccc12 | 4.4 µM
CCCC/C=C/C=C/c1nc2cccc(OC)c2n2cccc12 | 5.8 µM
C/C=C/C=C/C=C/c1nc2ccccc2n2cccc12 | 1.2 µM
C/C=C/C=C/c1nc2ccccc2n2ccc(OCC)c12 | 1.5 µM
N=C(N)c1ccc(OCCCCCOc2ccc(C(=N)N)cc2)cc1 [PENTAMIDINE] | 4.3 µM

Tested on: Leishmania mexicana
Assay: Antimicrobial activity against Leishmania mexicana MHOM/MX/95/NAN1 promastigotes after 96 hrs by resazurin-based assay
Assay type: functional, organism-based
Conditions: MHOM/MX/95/NAN1, 96 h

Compound | IC50
CCCC/C=C/C=C/c1nc2ccccc2n2cccc12 | 6.1 µM
CCCC/C=C/C=C/c1nc2cc(OC)ccc2n2cccc12 | 6.6 µM
CCCC/C=C/C=C/c1nc2ccc(OC)cc2n2cccc12 | 3.8 µM
CCCC/C=C/C=C/c1nc2cccc(OC)c2n2cccc12 | 4.5 µM
C/C=C/C=C/C=C/c1nc2ccccc2n2cccc12 | 4.4 µM
C/C=C/C=C/c1nc2ccccc2n2ccc(OCC)c12 | 9.6 µM
N=C(N)c1ccc(OCCCCCOc2ccc(C(=N)N)cc2)cc1 [PENTAMIDINE] | 2.4 µM

Tested on: Leishmania donovani
Assay: Antimicrobial activity against Leishmania donovani MHOM/IN/00/DEVI promastigotes after 72 hrs by MTT assay
Assay type: functional, organism-based
Conditions: not given

Compound | IC50
CCCC/C=C/C=C/c1nc2ccccc2n2cccc12 | 13.7 µM
CCCC/C=C/C=C/c1nc2cc(OC)ccc2n2cccc12 | 12.1 µM
CCCC/C=C/C=C/c1nc2ccc(OC)cc2n2cccc12 | 14.7 µM
CCCC/C=C/C=C/c1nc2cccc(OC)c2n2cccc12 | 11.6 µM
C/C=C/C=C/C=C/c1nc2ccccc2n2cccc12 | 10.5 µM
C/C=C/C=C/c1nc2ccccc2n2ccc(OCC)c12 | 4 µM
N=C(N)c1ccc(OCCCCCOc2ccc(C(=N)N)cc2)cc1 [PENTAMIDINE] | 5.5 µM

Tested on: not listed separately
Assay: Cytotoxicity against mouse J774A1 cells after 72 hrs by MTT assay
Assay type: cell-based, J774.A1
Conditions: not given

Compound | CC50 at 72 h
CCCC/C=C/C=C/c1nc2ccccc2n2cccc12 | 8.8 µM
CCCC/C=C/C=C/c1nc2cc(OC)ccc2n2cccc12 | 8 µM
CCCC/C=C/C=C/c1nc2ccc(OC)cc2n2cccc12 | 10 µM
CCCC/C=C/C=C/c1nc2cccc(OC)c2n2cccc12 | 6.4 µM
C/C=C/C=C/C=C/c1nc2ccccc2n2cccc12 | 4.9 µM
C/C=C/C=C/c1nc2ccccc2n2ccc(OCC)c12 | 3.5 µM
N=C(N)c1ccc(OCCCCCOc2ccc(C(=N)N)cc2)cc1 [PENTAMIDINE] | 0.56 µM

Tested on: not listed separately
Assay: Cytotoxicity against human HepG2 cells after 72 hrs by MTT assay
Assay type: cell-based
Conditions: not given

Compound | CC50 at 72 h
CCCC/C=C/C=C/c1nc2ccccc2n2cccc12 | 8.2 µM
CCCC/C=C/C=C/c1nc2cc(OC)ccc2n2cccc12 | 18.3 µM
CCCC/C=C/C=C/c1nc2ccc(OC)cc2n2cccc12 | 22.9 µM
CCCC/C=C/C=C/c1nc2cccc(OC)c2n2cccc12 | 15.8 µM
C/C=C/C=C/C=C/c1nc2ccccc2n2cccc12 | 10.6 µM
C/C=C/C=C/c1nc2ccccc2n2ccc(OCC)c12 | 4.5 µM

Tested on: not listed separately
Assay: Selectivity index, ratio of CC50 for human HepG2 cells to IC50 for Leishmania major MHOM/IL/81/BNI promastigotes
Assay type: functional
Conditions: not given

Compound | Ratio CC50/IC50
CCCC/C=C/C=C/c1nc2ccccc2n2cccc12 | 2.2
CCCC/C=C/C=C/c1nc2cc(OC)ccc2n2cccc12 | 7.3
CCCC/C=C/C=C/c1nc2ccc(OC)cc2n2cccc12 | 5.2
CCCC/C=C/C=C/c1nc2cccc(OC)c2n2cccc12 | 2.7
C/C=C/C=C/C=C/c1nc2ccccc2n2cccc12 | 8.8
C/C=C/C=C/c1nc2ccccc2n2ccc(OCC)c12 | 3
N=C(N)c1ccc(OCCCCCOc2ccc(C(=N)N)cc2)cc1 [PENTAMIDINE] | 0.5

Tested on: not listed separately
Assay: Selectivity index, ratio of CC50 for human HepG2 cells to IC50 for Leishmania mexicana MHOM/MX/95/NAN1 promastigotes
Assay type: functional
Conditions: not given

Compound | Ratio CC50/IC50
CCCC/C=C/C=C/c1nc2ccccc2n2cccc12 | 1.3
CCCC/C=C/C=C/c1nc2cc(OC)ccc2n2cccc12 | 2.8
CCCC/C=C/C=C/c1nc2ccc(OC)cc2n2cccc12 | 6
CCCC/C=C/C=C/c1nc2cccc(OC)c2n2cccc12 | 3.5
C/C=C/C=C/C=C/c1nc2ccccc2n2cccc12 | 2.4
C/C=C/C=C/c1nc2ccccc2n2ccc(OCC)c12 | 0.5
N=C(N)c1ccc(OCCCCCOc2ccc(C(=N)N)cc2)cc1 [PENTAMIDINE] | 1

Tested on: not listed separately
Assay: Selectivity index, ratio of CC50 for human HepG2 cells to IC50 for Leishmania donovani MHOM/IN/00/DEVI promastigotes
Assay type: functional
Conditions: not given

Compound | Ratio CC50/IC50
CCCC/C=C/C=C/c1nc2ccccc2n2cccc12 | 0.6
CCCC/C=C/C=C/c1nc2cc(OC)ccc2n2cccc12 | 1.5
CCCC/C=C/C=C/c1nc2ccc(OC)cc2n2cccc12 | 1.6
CCCC/C=C/C=C/c1nc2cccc(OC)c2n2cccc12 | 1.4
C/C=C/C=C/C=C/c1nc2ccccc2n2cccc12 | 1
C/C=C/C=C/c1nc2ccccc2n2ccc(OCC)c12 | 1.1
N=C(N)c1ccc(OCCCCCOc2ccc(C(=N)N)cc2)cc1 [PENTAMIDINE] | 0.4

Tested on: not listed separately
Assay: Selectivity index, ratio of CC50 for mouse J774A1 cells to IC50 for Leishmania major MHOM/IL/81/BNI promastigotes
Assay type: functional, J774.A1
Conditions: not given

Compound | Ratio CC50/IC50
CCCC/C=C/C=C/c1nc2ccccc2n2cccc12 | 2.4
CCCC/C=C/C=C/c1nc2cc(OC)ccc2n2cccc12 | 3.2
CCCC/C=C/C=C/c1nc2ccc(OC)cc2n2cccc12 | 2.3
CCCC/C=C/C=C/c1nc2cccc(OC)c2n2cccc12 | 1.1
C/C=C/C=C/C=C/c1nc2ccccc2n2cccc12 | 4.1
C/C=C/C=C/c1nc2ccccc2n2ccc(OCC)c12 | 2.3
N=C(N)c1ccc(OCCCCCOc2ccc(C(=N)N)cc2)cc1 [PENTAMIDINE] | 0.1

Tested on: not listed separately
Assay: Selectivity index, ratio of CC50 for mouse J774A1 cells to IC50 for Leishmania mexicana MHOM/MX/95/NAN1 promastigotes
Assay type: functional, J774.A1
Conditions: not given

Compound | Ratio CC50/IC50
CCCC/C=C/C=C/c1nc2ccccc2n2cccc12 | 1.4
CCCC/C=C/C=C/c1nc2cc(OC)ccc2n2cccc12 | 1.2
CCCC/C=C/C=C/c1nc2ccc(OC)cc2n2cccc12 | 2.6
CCCC/C=C/C=C/c1nc2cccc(OC)c2n2cccc12 | 1.4
C/C=C/C=C/C=C/c1nc2ccccc2n2cccc12 | 1.1
C/C=C/C=C/c1nc2ccccc2n2ccc(OCC)c12 | 0.4
N=C(N)c1ccc(OCCCCCOc2ccc(C(=N)N)cc2)cc1 [PENTAMIDINE] | 0.2

Tested on: not listed separately
Assay: Selectivity index, ratio of CC50 for mouse J774A1 cells to IC50 for Leishmania donovani MHOM/IN/00/DEVI promastigotes
Assay type: functional, J774.A1
Conditions: not given

Compound | Ratio CC50/IC50
CCCC/C=C/C=C/c1nc2ccccc2n2cccc12 | 0.6
CCCC/C=C/C=C/c1nc2cc(OC)ccc2n2cccc12 | 0.7
CCCC/C=C/C=C/c1nc2ccc(OC)cc2n2cccc12 | 0.7
CCCC/C=C/C=C/c1nc2cccc(OC)c2n2cccc12 | 0.6
C/C=C/C=C/C=C/c1nc2ccccc2n2cccc12 | 0.5
C/C=C/C=C/c1nc2ccccc2n2ccc(OCC)c12 | 0.9
N=C(N)c1ccc(OCCCCCOc2ccc(C(=N)N)cc2)cc1 [PENTAMIDINE] | 0.1

Tested on: Leishmania major
Assay: Ratio of pentamidine IC50 to compound IC50 for Leishmania major MHOM/IL/81/BNI promastigotes
Assay type: functional
Conditions: not given

Compound | Ratio IC50
C/C=C/C=C/C=C/c1nc2ccccc2n2cccc12 | 3.6

Tested on: Trypanosoma brucei brucei
Assay: Antimicrobial activity against Trypanosoma brucei brucei Antat 1.1 after 24 hrs by haemocytometric analysis
Assay type: functional, organism-based
Conditions: Antat 1.1, 24 h

Compound | IC50
CCCC/C=C/C=C/c1nc2cc(OC)ccc2n2cccc12 | 1.1 µM
CCCC/C=C/C=C/c1nc2ccc(OC)cc2n2cccc12 | 1.3 µM
C/C=C/C=C/C=C/c1nc2ccccc2n2cccc12 | 2.2 µM
N=C(N)c1ccc(OCCCCCOc2ccc(C(=N)N)cc2)cc1 [PENTAMIDINE] | 0.05 µM

Tested on: not listed separately
Assay: Selectivity index, ratio of CC50 for human HepG2 cells to IC50 for Trypanosoma brucei brucei Antat 1.1
Assay type: functional
Conditions: not given

Compound | Ratio CC50/IC50
CCCC/C=C/C=C/c1nc2cc(OC)ccc2n2cccc12 | 16.6
CCCC/C=C/C=C/c1nc2ccc(OC)cc2n2cccc12 | 17.6
C/C=C/C=C/C=C/c1nc2ccccc2n2cccc12 | 4.8
N=C(N)c1ccc(OCCCCCOc2ccc(C(=N)N)cc2)cc1 [PENTAMIDINE] | 46

Tested on: Plasmodium falciparum
Assay: Antimicrobial activity against chloroquine-resistant and mefloquine-sensitive Plasmodium falciparum W2 infected in human erythrocytes after 48 hrs by SYBR Green I assay
Assay type: functional, organism-based
Conditions: W2, 48 h

Compound | IC50
CCCC/C=C/C=C/c1nc2ccccc2n2cccc12 | 6.7 µM
CCCC/C=C/C=C/c1nc2cc(OC)ccc2n2cccc12 | 13.8 µM
CCCC/C=C/C=C/c1nc2ccc(OC)cc2n2cccc12 | 13.3 µM
CCCC/C=C/C=C/c1nc2cccc(OC)c2n2cccc12 | 19.8 µM
C/C=C/C=C/C=C/c1nc2ccccc2n2cccc12 | 8.8 µM
C/C=C/C=C/c1nc2ccccc2n2ccc(OCC)c12 | 9.6 µM
O[C@@H](c1cc(C(F)(F)F)nc2c(C(F)(F)F)cccc12)[C@H]1CCCCN1 [(S,R)-MEFLOQUINE] | 0.015 µM

Tested on: Plasmodium falciparum
Assay: Antimicrobial activity against chloroquine and mefloquine-sensitive Plasmodium falciparum 3D7 infected in human erythrocytes after 48 hrs by SYBR Green I assay
Assay type: functional, organism-based
Conditions: 3D7, 48 h

Compound | IC50
CCCC/C=C/C=C/c1nc2ccccc2n2cccc12 | 6.3 µM
CCCC/C=C/C=C/c1nc2cc(OC)ccc2n2cccc12 | 8.9 µM
CCCC/C=C/C=C/c1nc2ccc(OC)cc2n2cccc12 | 10.4 µM
CCCC/C=C/C=C/c1nc2cccc(OC)c2n2cccc12 | 9.8 µM
C/C=C/C=C/C=C/c1nc2ccccc2n2cccc12 | 10.1 µM
C/C=C/C=C/c1nc2ccccc2n2ccc(OCC)c12 | 7.7 µM

Tested on: not listed separately
Assay: Selectivity index, ratio of CC50 for human HepG2 cells to IC50 for chloroquine-resistant and mefloquine-sensitive Plasmodium falciparum W2
Assay type: functional
Conditions: not given

Compound | Ratio CC50/IC50
CCCC/C=C/C=C/c1nc2ccccc2n2cccc12 | 1.2
CCCC/C=C/C=C/c1nc2cc(OC)ccc2n2cccc12 | 1.3
CCCC/C=C/C=C/c1nc2ccc(OC)cc2n2cccc12 | 1.7
CCCC/C=C/C=C/c1nc2cccc(OC)c2n2cccc12 | 0.8
C/C=C/C=C/C=C/c1nc2ccccc2n2cccc12 | 1.2
C/C=C/C=C/c1nc2ccccc2n2ccc(OCC)c12 | 0.5

Tested on: not listed separately
Assay: Selectivity index, ratio of CC50 for human HepG2 cells to IC50 for chloroquine and mefloquine-sensitive Plasmodium falciparum 3D7
Assay type: functional
Conditions: not given

Compound | Ratio CC50/IC50
CCCC/C=C/C=C/c1nc2ccccc2n2cccc12 | 1.3
CCCC/C=C/C=C/c1nc2cc(OC)ccc2n2cccc12 | 2.1
CCCC/C=C/C=C/c1nc2ccc(OC)cc2n2cccc12 | 2.2
CCCC/C=C/C=C/c1nc2cccc(OC)c2n2cccc12 | 1.6
C/C=C/C=C/C=C/c1nc2ccccc2n2cccc12 | 1
C/C=C/C=C/c1nc2ccccc2n2ccc(OCC)c12 | 0.6
